Columns and labels:
Format in all cases: in vivo
kochia (Kochia scoparia) = experiment: Test C greenhouse herbicide test, postemergence; conditions: for Plant response rating, Kochia: Postemergence
In short: (§1)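 Test chemicals were applied postemergence to greenhouse plants at the 1- to 4-leaf stage (2–18 cm tall) growing in peat/vermiculite medium. After 13–15 d, injury was rated visually against untreated controls on a 0–100 scale (0 = no effect, 100 = complete control).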

[1] = test system: oat, wild (wild oat, Avena fatua); experiment: Test C greenhouse herbicide test, postemergence; conditions: for Plant response rating, Oat, Wild: Postemergence
In short: as §1

[2] = test system: waterhemp (common waterhemp, Amaranthus rudis); experiment: Test C greenhouse herbicide test, pre- and postemergence
In short: (§2)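 Percent-control ratings (0 none, 100 complete) came from visual comparison with controls held alongside in the greenhouse for 13–15 d. Treatments covered soil application at sowing and foliar application to young plants 2–18 cm tall.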

[3] = test system: ryegrass, Italian (Italian ryegrass, Lolium multiflorum); experiment: as above
In short: as §2

[4] = test system: oilseed rape (Brassica napus); experiment: as above
In short: as §2

[5] = test system: blackgrass (Alopecurus myosuroides); experiment: as above
In short: as §2

[6] = test system: foxtail, giant (giant foxtail, Setaria faberii); experiment: as above
In short: as §2

[7] = test system: morningglory (Ipomoea coccinea); experiment: as above
In short: as §2

[8] = test system: lambsquarters (Chenopodium album); experiment: as above
In short: as §2

soybean (Glycine max) = experiment: as above
In short: as §2

corn (Zea mays) = experiment: as above
In short: as §2

[9] = test system: ragweed (common ragweed, Ambrosia elatior); experiment: as above
In short: as §2

[10] = test system: velvetleaf (Abutilon theophrasti); experiment: as above
In short: as §2

[11] = test system: crabgrass, large (large crabgrass, Digitaria sanguinalis); experiment: as above
In short: as §2

[12] = test system: johnsongrass (Sorghum halepense); experiment: as above
In short: as §2

[13] = test system: pigweed (Amaranthus retroflexus); experiment: as above
In short: as §2

[14] = 125 g ai/ha, scale 0 to 100, 0 is no effect, 100 is complete control
[15] = 250 g ai/ha, scale 0 to 100, 0 no effect, 100 complete control, 13 to 15 d
[16] = postemergence, 62 g ai/ha, scale 0 to 100, 0 no effect, 100 complete control
[17] = Postemergence, 125 g ai/ha, scale 0 to 100, 0 is no effect, 100 is complete control
[18] = Postemergence, 250 g ai/ha, scale 0 to 100, 0 no effect, 100 complete control, 13 to 15 d
[19] = Preemergence, 31 g ai/ha, scale 0 to 100, 0 is no effect, 100 is complete control
[20] = Preemergence, 62 g ai/ha, scale 0 to 100, 0 is no effect, 100 is complete control
[21] = Preemergence, 125 g ai/ha, scale 0 to 100, 0 is no effect, 100 is complete control
[22] = Preemergence, 250 g ai/ha, scale 0 to 100 (0 no effect, 100 complete control)
[23] = Postemergence, 31 g ai/ha, 0 to 100 scale (0 no effect, 100 complete control)

How did the “Plant response rating, Kochia” value (kochia (Kochia scoparia); [14]) turn out when `CCOC(=O)Oc1c(C)nn(C)c(=O)c1-c1c(C)sc2c(C)cc(C)cc12` [Compound 83] was run?
The value was 65.

And the “Plant response rating, Kochia” value (kochia (Kochia scoparia); [15])?
The value was 80.

What about the “Kochia plant response rating” value (kochia (Kochia scoparia); [16]) of the same compound?
Its value is 60.

And the “Plant response rating, Oat, Wild” value [1, 14]?
The value was 90.

And the “Plant response rating, Oat, Wild” value [1, 15]?
The value was 95.

What about the “Oat, Wild plant response rating” value [1, 16] of the same compound?
Its value is 90.

What about the “Plant response rating, Waterhemp” value [2, 17] of the same compound?
The value was 60.

And the “Plant response rating, Waterhemp” value [2, 18]?
Its value is 80.

And the “Plant response rating, Waterhemp” value [2, 19]?
Its value is 60.

And the “Plant response rating, Waterhemp” value [2, 20]?
Its value is 90.

What about the “Plant response rating, Waterhemp” value [2, 21] of the same compound?
The value was 100.

What about the “Waterhemp plant response rating” value [2, 22] of the same compound?
Its value is 100.

What about the “Waterhemp plant response rating” value [2, 16] of the same compound?
Its value is 85.

And the “Plant response rating, Ryegrass, Italian” value [3, 17]?
The value was 90.

And the “Plant response rating, Ryegrass, Italian” value [3, 18]?
Its value is 95.

And the “Plant response rating, Ryegrass, Italian” value [3, 19]?
The value was 90.

What about the “Plant response rating, Ryegrass, Italian” value [3, 20] of the same compound?
Its value is 90.

What about the “Plant response rating, Ryegrass, Italian” value [3, 21] of the same compound?
Its value is 90.

And the “Ryegrass, Italian plant response rating” value [3, 22]?
Its value is 90.

What about the “Ryegrass, Italian plant response rating” value [3, 16] of the same compound?
The value was 90.

What about the “Plant response rating, Oilseed Rape” value [4, 17] of the same compound?
The value was 45.

And the “Plant response rating, Oilseed Rape” value [4, 18]?
The value was 70.

And the “Plant response rating, Oilseed Rape” value [4, 19]?
The value was 0.

What about the “Plant response rating, Oilseed Rape” value [4, 20] of the same compound?
Its value is 0.

And the “Plant response rating, Oilseed Rape” value [4, 21]?
The value was 50.

What about the “Oilseed Rape plant response rating” value [4, 22] of the same compound?
The value was 50.

And the “Oilseed Rape plant response rating” value [4, 16]?
The value was 0.

And the “Blackgrass plant response rating” value [5, 23]?
The value was 40.

What about the “Plant response rating, Blackgrass” value [5, 17] of the same compound?
Its value is 90.

What about the “Plant response rating, Blackgrass” value [5, 18] of the same compound?
The value was 90.

And the “Plant response rating, Blackgrass” value [5, 19]?
Its value is 70.

And the “Plant response rating, Blackgrass” value [5, 20]?
The value was 80.

What about the “Plant response rating, Blackgrass” value [5, 21] of the same compound?
The value was 80.

What about the “Blackgrass plant response rating” value [5, 22] of the same compound?
Its value is 90.

What about the “Blackgrass plant response rating” value [5, 16] of the same compound?
The value was 80.

What about the “Plant response rating, Foxtail, Giant” value [6, 17] of the same compound?
The value was 85.

What about the “Plant response rating, Foxtail, Giant” value [6, 18] of the same compound?
Its value is 90.

And the “Plant response rating, Foxtail, Giant” value [6, 19]?
Its value is 85.

And the “Plant response rating, Foxtail, Giant” value [6, 20]?
The value was 100.

What about the “Plant response rating, Foxtail, Giant” value [6, 21] of the same compound?
The value was 100.

And the “Foxtail, Giant plant response rating” value [6, 22]?
Its value is 100.

And the “Foxtail, Giant plant response rating” value [6, 16]?
Its value is 85.

What about the “Plant response rating, Morningglory” value [7, 17] of the same compound?
The value was 100.

And the “Plant response rating, Morningglory” value [7, 18]?
Its value is 98.

And the “Plant response rating, Morningglory” value [7, 19]?
Its value is 85.

And the “Plant response rating, Morningglory” value [7, 20]?
Its value is 90.

And the “Plant response rating, Morningglory” value [7, 21]?
Its value is 95.

What about the “Morningglory plant response rating” value [7, 22] of the same compound?
The value was 98.

And the “Morningglory plant response rating” value [7, 16]?
The value was 90.

And the “Plant response rating, Lambsquarters” value [8, 17]?
The value was 85.

And the “Plant response rating, Lambsquarters” value [8, 18]?
Its value is 98.

What about the “Plant response rating, Lambsquarters” value [8, 19] of the same compound?
The value was 80.

And the “Plant response rating, Lambsquarters” value [8, 20]?
Its value is 85.

What about the “Plant response rating, Lambsquarters” value [8, 21] of the same compound?
The value was 95.

What about the “Lambsquarters plant response rating” value [8, 22] of the same compound?
Its value is 100.

And the “Lambsquarters plant response rating” value [8, 16]?
The value was 85.

What about the “Plant response rating, Soybean” value (soybean (Glycine max); [17]) of the same compound?
The value was 0.

What about the “Plant response rating, Soybean” value (soybean (Glycine max); [18]) of the same compound?
Its value is 10.

What about the “Plant response rating, Soybean” value (soybean (Glycine max); [19]) of the same compound?
The value was 30.

And the “Plant response rating, Soybean” value (soybean (Glycine max); [20])?
Its value is 0.

And the “Plant response rating, Soybean” value (soybean (Glycine max); [21])?
The value was 0.

What about the “Soybean plant response rating” value (soybean (Glycine max); [22]) of the same compound?
Its value is 0.

And the “Soybean plant response rating” value (soybean (Glycine max); [16])?
Its value is 0.

What about the “Corn plant response rating” value (corn (Zea mays); [23]) of the same compound?
The value was 5.

And the “Plant response rating, Corn” value (corn (Zea mays); [17])?
The value was 10.

And the “Plant response rating, Corn” value (corn (Zea mays); [18])?
Its value is 10.

And the “Plant response rating, Corn” value (corn (Zea mays); [19])?
The value was 0.

And the “Plant response rating, Corn” value (corn (Zea mays); [20])?
The value was 0.

What about the “Plant response rating, Corn” value (corn (Zea mays); [21]) of the same compound?
Its value is 0.

And the “Corn plant response rating” value (corn (Zea mays); [22])?
The value was 10.

And the “Corn plant response rating” value (corn (Zea mays); [16])?
The value was 5.

And the “Plant response rating, Ragweed” value [9, 17]?
The value was 90.

What about the “Plant response rating, Ragweed” value [9, 18] of the same compound?
Its value is 85.

What about the “Plant response rating, Ragweed” value [9, 19] of the same compound?
Its value is 85.

What about the “Plant response rating, Ragweed” value [9, 20] of the same compound?
Its value is 100.

And the “Plant response rating, Ragweed” value [9, 21]?
Its value is 95.

And the “Ragweed plant response rating” value [9, 22]?
Its value is 95.

And the “Ragweed plant response rating” value [9, 16]?
The value was 85.

And the “Plant response rating, Velvetleaf” value [10, 17]?
Its value is 90.

What about the “Plant response rating, Velvetleaf” value [10, 18] of the same compound?
The value was 90.

What about the “Plant response rating, Velvetleaf” value [10, 19] of the same compound?
Its value is 35.

What about the “Plant response rating, Velvetleaf” value [10, 20] of the same compound?
The value was 70.

And the “Plant response rating, Velvetleaf” value [10, 21]?
The value was 85.

What about the “Velvetleaf plant response rating” value [10, 22] of the same compound?
Its value is 90.

And the “Velvetleaf plant response rating” value [10, 16]?
Its value is 90.

And the “Plant response rating, Crabgrass, Large” value [11, 17]?
The value was 40.

And the “Plant response rating, Crabgrass, Large” value [11, 18]?
Its value is 55.

What about the “Plant response rating, Crabgrass, Large” value [11, 19] of the same compound?
The value was 75.

What about the “Plant response rating, Crabgrass, Large” value [11, 20] of the same compound?
Its value is 65.

What about the “Plant response rating, Crabgrass, Large” value [11, 21] of the same compound?
The value was 70.

And the “Crabgrass, Large plant response rating” value [11, 22]?
The value was 85.

What about the “Crabgrass, Large plant response rating” value [11, 16] of the same compound?
The value was 25.

What about the “Plant response rating, Johnsongrass” value [12, 17] of the same compound?
Its value is 5.

What about the “Plant response rating, Johnsongrass” value [12, 18] of the same compound?
The value was 10.

What about the “Plant response rating, Johnsongrass” value [12, 19] of the same compound?
The value was 65.

And the “Plant response rating, Johnsongrass” value [12, 20]?
Its value is 75.

And the “Plant response rating, Johnsongrass” value [12, 21]?
Its value is 60.

And the “Johnsongrass plant response rating” value [12, 22]?
The value was 70.

And the “Johnsongrass plant response rating” value [12, 16]?
Its value is 5.

What about the “Plant response rating, Pigweed” value [13, 17] of the same compound?
The value was 90.

What about the “Plant response rating, Pigweed” value [13, 18] of the same compound?
Its value is 90.

What about the “Plant response rating, Pigweed” value [13, 19] of the same compound?
The value was 100.

What about the “Plant response rating, Pigweed” value [13, 20] of the same compound?
The value was 100.

What about the “Plant response rating, Pigweed” value [13, 21] of the same compound?
The value was 100.

And the “Pigweed plant response rating” value [13, 22]?
Its value is 100.

And the “Pigweed plant response rating” value [13, 16]?
The value was 85.

Reference: patent US10597388B2, “Pyridazinone herbicides” (FMC CORPORATION, priority 2014, dated 2020)
